# Results: patent publication US20240335569A1, “FIBROBLAST ACTIVATION PROTEIN INHIBITORS AND USE THEREOF” (3 B PHARMACEUTICALS GMBH, priority 2021, published 2024)
# Read-outs that look alike come from different tables or passages of the source.
# Tests used:
# recombinant human PREP = recombinant human PREP (Homo sapiens (Human), UniProt P48147); test: PREP protease activity assay; format: biochemical
# Method: (§1) The PREP activity assay was performed using the FACS buffer (PBS including 1% FBS, Sigma-Aldrich, Cat #D8537). […] The DPP4 activity assay was performed in DPP assay buffer (25 mM Tris, pH 8.0). […] Four parameter logistic (4PL) curve fitting and pIC50 calculations were performed using ActivityBase software.
# Human recombinant FAP [1] = molecular target: T1, Human recombinant FAP (Homo sapiens (Human), UniProt Q12884); test: FAP protease activity assay (human), FRET-based; format: biochemical; conditions: recombinant human FAP, FRET protease activity
# Method: (§2) In order to determine the inhibitory activity a FRET-based FAP protease activity assay was established.
# Four parameter logistic (4PL) curve fitting and pIC50 calculations were performed using ActivityBase software (IDBS).
# Target sequence in this assay (Q12884 26-760): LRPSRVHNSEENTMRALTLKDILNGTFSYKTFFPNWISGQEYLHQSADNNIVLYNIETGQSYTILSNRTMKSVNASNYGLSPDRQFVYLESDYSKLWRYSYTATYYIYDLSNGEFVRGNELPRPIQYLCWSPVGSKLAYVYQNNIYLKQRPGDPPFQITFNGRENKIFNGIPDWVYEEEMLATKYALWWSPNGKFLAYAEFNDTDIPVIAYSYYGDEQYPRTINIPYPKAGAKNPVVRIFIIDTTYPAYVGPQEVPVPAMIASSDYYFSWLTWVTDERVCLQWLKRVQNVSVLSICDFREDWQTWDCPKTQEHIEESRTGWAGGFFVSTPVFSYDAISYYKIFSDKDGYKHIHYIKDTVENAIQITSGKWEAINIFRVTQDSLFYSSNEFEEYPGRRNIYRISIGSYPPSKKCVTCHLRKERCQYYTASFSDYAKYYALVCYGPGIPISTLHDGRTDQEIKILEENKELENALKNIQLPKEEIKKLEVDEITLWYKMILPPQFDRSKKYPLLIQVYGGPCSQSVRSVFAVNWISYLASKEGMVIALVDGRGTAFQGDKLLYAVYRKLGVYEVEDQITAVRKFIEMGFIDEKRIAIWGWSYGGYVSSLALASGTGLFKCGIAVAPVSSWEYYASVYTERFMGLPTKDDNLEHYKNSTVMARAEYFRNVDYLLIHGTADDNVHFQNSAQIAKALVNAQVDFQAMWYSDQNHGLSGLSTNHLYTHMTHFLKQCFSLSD
# [2] = Plasma stability assay (mouse plasma); format: in vitro ADME; conditions: 37° C., 4 h
# Method: In order to determine the stability of selected compounds of the invention in human and mouse plasma, a plasma stability assay was carried out. Such plasma stability assay measures degradation of compounds of the present invention in blood plasma. This is an important characteristic of a compound as compounds, with the exception of pro-drugs, which rapidly degrade in plasma, generally show poor in vivo efficacy. […] The stability is sufficient for the diagnostic, therapeutic and theragnostic use of these compounds according to the present invention.
# The plasma stability samples were prepared by spiking 50 μl plasma aliquots (all sodium citrate 3.8%) with 1 μL of a 0.5 mM compound stock solution in DMSO. After vortexing, the samples were incubated in a Thermomixer at 37° C. for 4 or 6 hours. After incubation, the samples were stored on ice until further treatment. All samples were prepared in duplicates.
# A suitable internal standard was added to each sample (1 μL of a 0.5 mM stock solution in DMSO). Protein precipitation was performed using two different methods depending on the compound conditions as indicated in Table 7. • A) 250 μL of acetonitrile containing 1% trifluoroacetic acid was added. […] After incubation at room temperature for 30 min, the precipitate was separated by centrifugation. To 100 μL of the supernatant 10 μL of 1% formic acid was added followed by further incubation at 60° C. for 10 min to complete the formation of the zinc chelate, if the compound contains a free DOTA moiety.
# The determination of the analyte in the clean sample solutions was performed on an Agilent 1290 UHPLC system coupled to an Agilent 6530 Q-TOF mass spectrometer. The chromatographic separation was carried out on a Phenomenex BioZen XB-C18 HPLC column (50×2 mm, 1.7 μm particle size) with gradient elution using a mixture of 0.1% formic acid in water as eluent A and acetonitrile as eluent B (2% B to 41% in 7 min, 800 μL/min, 40° C.). Mass spectrometric detection was performed in positive ion ESI mode by scanning the mass range from m/z 50 to 3000 with a sampling rate of 2/sec.
# From the mass spectrometric raw data, the ion currents for the double or triple charged monoisotopic signal was extracted for both, the compound and the internal standard.
# Quantitation was performed by external matrix calibration with internal standard using the integrated analyte signals.
# The result is stated as “% intact compound remaining after 4 h or 6 h” and means that from the amount of material at the start of the experiment the stated percentage is detected as unchanged material at the end of the experiment by LC-MS quantification. Since all compounds are more than 50% intact after at least 4 h they are considered as stable enough for diagnostic and therapeutic applications.
# [3] = molecular target: FAP-expressing human WI-38 fibroblasts (Homo sapiens (Human), UniProt Q12884); test: FACS binding assay (competitive, Cy5-labeled 3BP-2935); conditions: FAP-expressing WI-38 fibroblasts
# Method: In order to determine binding of compounds according to the present invention to FAP-expressing cells, a competitive FACS binding assay was established. […] Cells were diluted in FACS buffer to a final concentration of 100.000 cells per ml and 200 μl of the cell suspension are transferred to a u-shaped non-binding 96-well plate (Greiner). […] Cell were washed twice with FACS buffer (see above) and resuspended in 200 μl FACS buffer. Cells were analyzed in an Attune NxT flow cytometer (Thermo Fisher Scientific). Median fluorescence intensities (Cy5 channel) were calculated by Attune NxT software and plotted against test compound concentrations. Four parameter logistic (4PL) curve fitting and pIC50 calculations were performed using ActivityBase software.
# Recombinant human DPP4 = Recombinant human DPP4 (Homo sapiens (Human), UniProt P27487); test: DPP4 protease activity assay; format: biochemical
# Method: as §1
# Human recombinant FAP [4] = molecular target: T1, Human recombinant FAP; test: Surface plasmon resonance assay (Biacore T200, SCK); format: binding; conditions: for HL [min] (Biacore): SPR dissociation half-life
# Method: Surface plasmon resonance studies were performed using a Biacore™ T200 SPR system (Cytiva, formerly GE Healthcare). Briefly, polarized light is directed towards a gold-labeled sensor surface, and minimum intensity reflected light is detected. The angle of reflected light changes as molecules bind and dissociate. […] Test compounds are contacted with the loaded surface, and a real-time interaction profile with the FAP ligand is recorded in a sensorgram. In real-time, the association and dissociation of a binding interaction is measured, enabling calculation of association and dissociation rate constants and the corresponding affinity constants. Importantly, a background response is generated due to the difference in the refractive indices of the running and sample buffers, as well as unspecific binding of the test compounds to the flow cell surface. This background is measured and subtracted by running the sample on a control flow cell coated with the same density of capture antibody in the absence of immobilized FAP. Furthermore, baseline drift correction of the binding data is performed, which is caused by slow dissociation of the captured FAP from the immobilized antibody. This drift is measured by injecting running buffer through a flow cell with the antibody and FAP immobilized to the sensor surface.
# Biacore™ CM5 sensor chips were used. […] A 150 μL aliquot was transferred into plastic vials and placed into the sample rack of the Biacore™ T200 instrument. Amine Coupling Kit Reagent solutions were transferred into plastic vials and placed into the sample rack: 90 μL of 0.4 M 1-ethyl-3-(3-dimethylaminopropyl) carbodiimide (EDC), and 90 μL of 0.1 M N-hydroxysuccinimide (NHS). A 130 μL aliquot of 1 M ethanolamine-HCl, pH 8.5, was transferred into plastic vials and placed into the sample rack. The Biacore™ liquid system was set-up as follows: Separate bottles containing distilled water (1 L), Running Buffer (500 mL), as well as an empty bottle for waste were placed onto the buffer tray. A preinstalled program for immobilization was used, with an immobilization level of 7000 RU. Immobilization was performed at 25° C. The immobilization procedure of anti-FAP antibodies was performed, as described in the Table 4.
# Human recombinant FAP was diluted in Running Buffer to a final concentration of 20 μg/mL. A 100 μL aliquot of human FAP-Working-Solution was transferred into plastic vials and placed into a sample rack. A 0.5 mM Compound-Stock-Solution was prepared by dissolving each compound in DMSO. For each test compound, Compound-Stock-Solutions were diluted in Running Buffer (HBST) at 500 nM and further diluted with HBST-DMSO Buffer (0.1% DMSO). SPR binding analyses for binary complexes were performed in SCK mode at 25° C. Following three SCK measurements, a baseline drift was assessed by injecting running buffer through a flow cell, with the antibody and FAP immobilized to the sensor surface.
# For each test compound, SPR raw data in the form of resonance units (RU) were plotted as sensorgrams using the Biacore™ T200 control software. The signal from the blank sensorgram was subtracted from that of the test compound sensorgram (blank corrected). The blank corrected sensorgram was corrected for baseline drift by subtracting the sensorgram of a SCK run without the test compound (running buffer only). The association rate (kon), dissociation rate (koff), dissociation constant (KD), and t1/2 were calculated from Blank-normalized SPR data using the 1:1 Langmuir binding model from the Biacore™ T200 evaluation software. Raw data and fit results were imported as text files in IDBS. The pKD value (negative decadic logarithm of dissociation constant) was calculated in the IDBS excel template.
# Target sequence in this assay (Q12884 whole entry): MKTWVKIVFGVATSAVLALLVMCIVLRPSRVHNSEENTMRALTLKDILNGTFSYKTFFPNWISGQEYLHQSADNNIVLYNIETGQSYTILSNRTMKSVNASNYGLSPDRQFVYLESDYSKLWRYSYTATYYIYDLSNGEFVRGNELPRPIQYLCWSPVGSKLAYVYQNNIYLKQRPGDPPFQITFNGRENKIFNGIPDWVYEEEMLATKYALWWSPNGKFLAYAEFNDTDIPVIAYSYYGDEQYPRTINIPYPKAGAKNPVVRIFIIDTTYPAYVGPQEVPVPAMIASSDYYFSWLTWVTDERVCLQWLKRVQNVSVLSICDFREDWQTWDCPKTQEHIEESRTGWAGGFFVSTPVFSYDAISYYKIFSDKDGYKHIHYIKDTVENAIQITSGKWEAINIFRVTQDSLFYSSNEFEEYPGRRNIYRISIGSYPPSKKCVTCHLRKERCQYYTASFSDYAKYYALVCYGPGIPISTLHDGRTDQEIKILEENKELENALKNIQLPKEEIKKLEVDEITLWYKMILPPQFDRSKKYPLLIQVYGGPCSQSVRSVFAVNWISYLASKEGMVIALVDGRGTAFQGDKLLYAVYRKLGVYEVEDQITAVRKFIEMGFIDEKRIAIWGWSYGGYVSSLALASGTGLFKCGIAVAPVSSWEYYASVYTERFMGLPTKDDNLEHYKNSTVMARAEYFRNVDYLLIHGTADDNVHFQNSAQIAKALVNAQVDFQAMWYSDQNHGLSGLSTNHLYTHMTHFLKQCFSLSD
# [5] = molecular target: HEK-FAP cells (HEK293 cells engineered to express the human FAP) (Homo sapiens (Human), UniProt Q12884); test: LigandTracer assay with 111In-labeled compounds; format: binding; conditions: 111In-labeled compound
# Method: HEK293 cells (human embryonic kidney cells) were engineered to express the human FAP. […] Cell concentrations were adjusted to 3×10^5 mL^−1, and 3.000 μL of the suspension was dispensed into a poly-lysine-coated, clear cell dish (10 cm). Approximately 24 hours after re-seeding, the medium was replaced by assay medium (Ham's medium with 20 mM HEPES) containing 1% FCS. The dish was placed in the LigandTracer® device and a baseline measurement was obtained using the LigandTracer® Control software (version 2.4). […] To determine the dissociation rate (kd) the cells were washed and subsequently incubated with fresh assay medium for several hours.
# HT-29 cells = test: Stability in the presence of tumor cells (HT-29), FAP IC50 of supernatants; format: in vitro ADME, human
# Method: Cells were cultured in McCoys's 5A modified medium (Biochrom, #F1015) including 10% fetal bovine serum (FBS), 2 mM L-glutamine, 100 U/ml penicillin and 100 μg/mL streptomycin (growth medium). […] 1 mL of the cell suspension were seeded in 24-well plates and incubated overnight at 37° C. and 5% CO2. The next day, cells were washed twice and growth medium was exchanged against DMEM without phenol red (Biochrom, #F0475) including 2 mM L-glutamine. Test compound was diluted in DMEM without phenol red (Biochrom, #F0475) including 2 mM L-glutamine. 400 μL of a 10 μM solution of the test compound was incubated for 24 hours at 37° C. and 5% CO2 in the presence of cells as well as in control wells (without cells) of the same 24-well plate.
# 25 μL of a 30 μM substrate solution, diluted in assay buffer, was added. All solutions were equilibrated at 37° C. prior to use. […] RFU/sec was calculated by SoftMax Pro software and plotted against test compound concentration. Four parameter logistic (4PL) curve fitting and IC50/pIC50 calculations were performed using GraphPad Prism 9.1 software.
# The stability of exemplary compounds was further assessed in the presence of a variety of human cell lines from different tissue origins. […] Compounds were diluted in DMEM without phenol red (Biochrom, #F0475) including 2 mM L-glutamine. 400 μL of a 10 μM solution of the test compound was incubated for 24 hours at 37° C. and 5% CO2 in the presence of cells as well as in control wells (without cells) of the same 24-well plate. IC50/pIC50 determination of the supernatants was performed as described above.
# Recombinant mouse FAP = Recombinant mouse FAP (Mus musculus (Mouse), UniProt P97321); test: FAP protease activity assay (mouse), FRET-based; format: biochemical; conditions: recombinant mouse FAP, FRET protease activity
# Method: as §2
# Four parameter logistic (4PL) curve fitting and pIC50 calculations were performed using ActivityBase software.
# Sequence of recombinant human PREP (P48147 whole entry): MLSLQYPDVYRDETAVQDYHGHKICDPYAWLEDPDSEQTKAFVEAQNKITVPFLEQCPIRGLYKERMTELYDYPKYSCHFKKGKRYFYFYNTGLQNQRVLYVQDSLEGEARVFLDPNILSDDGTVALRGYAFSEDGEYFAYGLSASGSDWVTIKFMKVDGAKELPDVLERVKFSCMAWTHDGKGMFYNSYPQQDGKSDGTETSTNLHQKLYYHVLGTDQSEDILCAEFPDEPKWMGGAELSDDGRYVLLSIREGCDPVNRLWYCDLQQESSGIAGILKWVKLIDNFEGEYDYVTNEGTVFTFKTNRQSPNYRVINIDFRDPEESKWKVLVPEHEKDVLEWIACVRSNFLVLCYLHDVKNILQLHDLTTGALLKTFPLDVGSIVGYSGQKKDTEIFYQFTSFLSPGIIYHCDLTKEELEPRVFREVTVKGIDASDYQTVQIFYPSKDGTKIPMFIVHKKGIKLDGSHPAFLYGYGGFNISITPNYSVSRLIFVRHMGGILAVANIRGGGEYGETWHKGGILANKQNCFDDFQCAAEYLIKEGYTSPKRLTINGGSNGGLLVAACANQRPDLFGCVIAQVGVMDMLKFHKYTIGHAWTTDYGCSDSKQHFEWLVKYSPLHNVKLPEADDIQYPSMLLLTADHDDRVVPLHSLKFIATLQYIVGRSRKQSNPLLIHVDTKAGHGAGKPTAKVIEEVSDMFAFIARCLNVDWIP
# Sequence of Recombinant human DPP4 (P27487 whole entry): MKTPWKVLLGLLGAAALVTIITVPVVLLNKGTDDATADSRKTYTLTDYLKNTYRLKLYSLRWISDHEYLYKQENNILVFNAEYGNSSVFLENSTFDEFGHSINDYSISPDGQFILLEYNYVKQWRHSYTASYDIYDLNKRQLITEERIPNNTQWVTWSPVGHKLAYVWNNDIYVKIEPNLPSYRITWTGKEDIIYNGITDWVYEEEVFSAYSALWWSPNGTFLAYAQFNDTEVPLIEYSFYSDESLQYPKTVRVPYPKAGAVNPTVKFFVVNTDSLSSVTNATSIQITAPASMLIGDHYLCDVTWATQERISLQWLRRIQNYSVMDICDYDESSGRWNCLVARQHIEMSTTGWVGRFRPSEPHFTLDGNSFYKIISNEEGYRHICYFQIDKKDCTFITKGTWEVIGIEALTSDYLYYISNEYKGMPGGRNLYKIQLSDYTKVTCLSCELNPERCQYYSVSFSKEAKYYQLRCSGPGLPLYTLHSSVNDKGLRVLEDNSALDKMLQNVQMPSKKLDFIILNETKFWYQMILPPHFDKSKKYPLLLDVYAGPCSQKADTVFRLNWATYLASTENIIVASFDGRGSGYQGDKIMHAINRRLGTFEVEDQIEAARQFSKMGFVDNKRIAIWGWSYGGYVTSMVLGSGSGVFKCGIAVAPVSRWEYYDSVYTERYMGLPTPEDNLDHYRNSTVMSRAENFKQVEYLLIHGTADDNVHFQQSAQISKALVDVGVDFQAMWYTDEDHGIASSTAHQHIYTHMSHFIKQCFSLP
# Sequence of FAP-expressing human WI-38 fibroblasts (Q12884 whole entry): as the sequence (Q12884 whole entry) above
# Sequence of Recombinant mouse FAP (P97321 whole entry): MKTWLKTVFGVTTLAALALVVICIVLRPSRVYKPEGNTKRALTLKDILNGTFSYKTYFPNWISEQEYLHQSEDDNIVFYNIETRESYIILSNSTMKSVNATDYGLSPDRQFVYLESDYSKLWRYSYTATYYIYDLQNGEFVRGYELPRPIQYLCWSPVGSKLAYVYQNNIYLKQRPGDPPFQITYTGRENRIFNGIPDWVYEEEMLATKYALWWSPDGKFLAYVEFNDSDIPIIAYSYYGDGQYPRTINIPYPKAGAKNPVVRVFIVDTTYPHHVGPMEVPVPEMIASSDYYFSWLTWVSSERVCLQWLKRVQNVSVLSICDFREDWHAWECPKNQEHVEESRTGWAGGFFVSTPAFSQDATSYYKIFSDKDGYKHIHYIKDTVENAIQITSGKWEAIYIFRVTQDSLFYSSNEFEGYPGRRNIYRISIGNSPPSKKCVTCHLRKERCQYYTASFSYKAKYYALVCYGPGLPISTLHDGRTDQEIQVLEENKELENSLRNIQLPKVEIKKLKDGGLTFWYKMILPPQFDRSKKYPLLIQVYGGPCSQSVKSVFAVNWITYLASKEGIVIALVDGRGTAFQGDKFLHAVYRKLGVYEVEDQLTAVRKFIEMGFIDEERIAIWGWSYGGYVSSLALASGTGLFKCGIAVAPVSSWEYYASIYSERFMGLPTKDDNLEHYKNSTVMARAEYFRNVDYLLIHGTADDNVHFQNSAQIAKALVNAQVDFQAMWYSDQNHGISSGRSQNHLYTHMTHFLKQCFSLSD
pIC50 (PREP) (recombinant human PREP),pIC50 (Activity) (Human recombinant FAP [1]),"% intact compound remaining after incubation, Mouse plasma [2] [%]",pIC50 (FACS) [3],pIC50 (DPP4) (Recombinant human DPP4),pKD (Biacore) (Human recombinant FAP [4]; SPR),HL [min] (Biacore) (Human recombinant FAP [4]),"pIC50 (incubation in cell medium w/o HT-29) (HT-29 cells; 10 μM compound, 24 hours at 37° C. in control wells without cells, supernatant tested on recombinant human FAP)","pIC50 (incubation in the presence of HT-29 cells) (HT-29 cells; 10 μM compound, 24 hours at 37° C. with HT-29 cells, supernatant tested on recombinant human FAP)",pIC50 (mouseFAP) (Recombinant mouse FAP),SMILES,HL (half-life) [5] [h],Residual activity after incubation with HT-29 cells for 24 hours (%) (HT-29 cells),IC50 (Human recombinant FAP [1]; read-out: pIC50 (Activity) (converted)) [nM],Kd [5] [nM],IC50 [3] [nM],"Kd (Human recombinant FAP [4]; SPR, read-out: pKD (Biacore) (converted)) [nM]","IC50 (HT-29 cells; 10 μM compound, 24 hours at 37° C. with HT-29 cells, supernatant tested on recombinant human FAP, read-out: pIC50 (incubation in the presence of HT-29 cells) (converted)) [nM]","IC50 (HT-29 cells; HT-29, 10 μM compound, 24 hours at 37° C. in control wells without cells, supernatant tested on recombinant human FAP, read-out: pIC50 (incubation in cell medium w/o HT-29) (converted)) [nM]"
6.1,8.8,>95,8.2,<6,9.2,4,–,–,–,CS(=O)(=O)c1ccc(-c2ccc3c(C(=O)NCC(=O)N4CCC[C@H]4C#N)ccnc3c2)cc1 [Compound 3BP-3128],–,–,–,–,–,–,–,–
–,–,–,–,–,>10.5,>150,8.6,8.6,–,O=C(O)CN1CCN(CC(=O)O)CCN(CC(=O)N2CCN(CCCOc3ccc4nccc(C(=O)NCC(=O)N5CCC[C@H]5C(=O)c5nc6ccccc6o5)c4c3)CC2)CCN(CC(=O)O)CC1 [Compound 3BP-4808],0.333 ± 0.083,>95,–,–,–,–,–,–
9.2,8.2,92,7.9,<6,8.6,0.6,–,–,–,O=C(NCC(=O)N1CCC[C@H]1C(=O)c1ncco1)c1ccnc2ccccc12 [Compound 3BP-3208],–,–,–,–,–,–,–,–
<6,9.2,78,8.8,6.1,10.1,29,–,–,9,CS(=O)(=O)c1cccc(-c2ccc3nccc(C(=O)NCC(=O)N4CC(F)(F)C[C@H]4C#N)c3c2)c1 [Compound 3BP-3126],–,–,–,–,–,–,–,–
<6,9.1,>95,8.7,<6,10.1,–,–,–,8.9,CS(=O)(=O)c1cccc(-c2ccc3c(C(=O)NCC(=O)N4CC(F)(F)C[C@H]4C#N)ccnc3c2)c1 [Compound 3BP-3127],–,–,–,–,–,–,–,–

SMILES,pIC50 (PREP) (recombinant human PREP),pIC50 (Activity) (Human recombinant FAP [1]),"% intact compound remaining after incubation, Mouse plasma [2] [%]",pIC50 (FACS) [3],pIC50 (DPP4) (Recombinant human DPP4),pKD (Biacore) (Human recombinant FAP [4]; SPR),HL [min] (Biacore) (Human recombinant FAP [4]),"pIC50 (incubation in cell medium w/o HT-29) (HT-29 cells; 10 μM compound, 24 hours at 37° C. in control wells without cells, supernatant tested on recombinant human FAP)","pIC50 (incubation in the presence of HT-29 cells) (HT-29 cells; 10 μM compound, 24 hours at 37° C. with HT-29 cells, supernatant tested on recombinant human FAP)",pIC50 (mouseFAP) (Recombinant mouse FAP),HL (half-life) [5] [h],Residual activity after incubation with HT-29 cells for 24 hours (%) (HT-29 cells),IC50 (Human recombinant FAP [1]; read-out: pIC50 (Activity) (converted)) [nM],Kd [5] [nM],IC50 [3] [nM],"Kd (Human recombinant FAP [4]; SPR, read-out: pKD (Biacore) (converted)) [nM]","IC50 (HT-29 cells; 10 μM compound, 24 hours at 37° C. with HT-29 cells, supernatant tested on recombinant human FAP, read-out: pIC50 (incubation in the presence of HT-29 cells) (converted)) [nM]","IC50 (HT-29 cells; HT-29, 10 μM compound, 24 hours at 37° C. in control wells without cells, supernatant tested on recombinant human FAP, read-out: pIC50 (incubation in cell medium w/o HT-29) (converted)) [nM]"
"O=C(O)CN1CCN(CC(=O)O)CCN(CC(=O)NCCCS(=O)(=O)c2ccc(-c3ccc4nccc(C(=O)NCC(=O)N5CCC[C@H]5C(=O)c5nc6ccccc6o5)c4c3)cc2)CCN(CC(=O)O)CC1 [Compound 3BP-3581, (S)-2,2′,2″-(10-(2-(3-(4-(4-(2-(2-(benzo[d]oxazole-2-carbonyl)pyrrolidin-1-yl)-2-oxoethylcarbamoyl)quinolin-6-yl)phenylsulfonyl)propylamino)-2-oxoethyl)-1,4,7,10-tetraazacyclododecane-1,4,7-triyl)triacetic Acid]",–,–,–,–,–,–,120,–,–,–,5.75 ± 3.63,>95,1.26,0.0794,1.58,< 0.0316,2,2
